The results in this text go back to ChEMBL document CHEMBL1121401, “Potential antitumor agents. 33. Quantitative structure--activity relationships for mutagenic activity and antitumor activity of substituted 4'-(9-acridinylamino)methanesulfonanilide derivatives” (J Med Chem, 1980).

Data set [1] can be described thus: physchem.
Description: Ionization constant (pKa)
The subject of data set [2] is Salmonella typhimurium. Particulars: Salmonella enterica subsp. enterica serovar Typhimurium.
The species entered for data set [3] is Mus musculus.
Description: Drug dose in (mg/kg)/day to provide an increase in life span of 40% was determined; nr refers to Particular level of biological response required not reached before drug toxicity supervened
For data set [4], the species on record is Mus musculus. This is another data set of the same source.
Description: Drug dose in (mg/kg)/day to provide an increase in life span of 40% was determined;nr refers to Particular level of biological response required not reached before drug toxicity supervened

The source made the active and inactive calls. No cut-off for these calls is given here.

`Cc1ccc2c(Nc3ccc(NS(C)(=O)=O)cc3)c3ccccc3nc2c1` showed a pKa in data set [1] of 7.49.
As for `COc1ccc2c(Nc3ccc(NS(C)(=O)=O)cc3)c3ccccc3nc2c1`, the pKa in data set [1] worked out at 7.57.
As for `CS(=O)(=O)Nc1ccc(Nc2c3ccccc3nc3cc(NS(C)(=O)=O)ccc23)cc1`, the “Log M50” value in data set [2] was “inactive”.
`COc1cc(Nc2c3ccccc3nc3ccccc23)ccc1NS(C)(=O)=O` [o-Amsacrine] came in with a pKa in data set [1] of 7.03. In data set [3], the “Log 1/D40” value is “Not reached”.
The compound `CS(=O)(=O)Nc1ccc(Nc2c3ccccc3nc3ccccc23)c([N+](=O)[O-])c1` had a pKa in data set [1] of 4.86. The “Log 1/D40” value in data set [3] is recorded as “Not reached”. Further, in data set [2], the “Log M50” value was “inactive”.
On to `CS(=O)(=O)Nc1ccc(Nc2c3ccccc3nc3ccccc23)c(N)c1`, for which the pKa in data set [1] came out at 7.65.
As to `COc1cccc2nc3ccccc3c(Nc3ccc(NS(C)(=O)=O)cc3)c12`, the “Log 1/D40” value in data set [3] is given as “Not reached”.
On to `COc1ccc2nc3ccccc3c(Nc3ccc(NS(C)(=O)=O)cc3)c2c1`, for which the pKa in data set [1] was 6.87. In addition, the “Log 1/D40” value in data set [3] is “Not reached”.
Consider `CS(=O)(=O)Nc1ccc(Nc2c3ccccc3nc3cc(Cl)ccc23)cc1`, for which, in data set [1], the pKa amounted to 6.57.
Still for that read-out and setting: the same measure for `CS(=O)(=O)Nc1ccc(Nc2c3ccccc3nc3cc(N=[N+]=[N-])ccc23)cc1`: 7.
On to `CS(=O)(=O)Nc1ccc(Nc2c3ccccc3nc3ccc(Cl)cc23)cc1`, for which the pKa in data set [1] was 6.42. Besides, in data set [3], the “Log 1/D40” value is “Not reached”.
As for `COC(=O)Nc1ccc2c(Nc3ccc(NS(C)(=O)=O)cc3)c3ccccc3nc2c1`, the pKa in data set [1] stood at 7.48.
In the case of `CCCCCCS(=O)(=O)Nc1ccc(Nc2c3ccccc3nc3ccccc23)cc1`, the “Log 1/D40” value in data set [3] is on record as “Not reached”.
Regarding `CS(=O)(=O)Nc1ccc(Nc2c3ccccc3nc3ccccc23)cc1Cl`, the pKa in data set [1] was 6.44. Moreover, the “Log 1/D40” value in data set [3] was “Not reached”.
As to `Cc1cc(Nc2c3ccccc3nc3ccccc23)ccc1NS(C)(=O)=O`, in data set [1], the pKa is 7.08. In data set [3], the “Log 1/D40” value was “Not reached”.
Take `CS(=O)(=O)Nc1ccc(Nc2c3ccccc3nc3ccc([N+](=O)[O-])cc23)cc1`: the “Log 1/D40” value in data set [3] is listed as “Not reached”.
For `Cc1cc(NS(C)(=O)=O)ccc1Nc1c2ccccc2nc2ccccc12`, the pKa in data set [1] worked out at 7.38.
Still for that read-out and setting: the same measure for `C[N+](C)=[N+]=Nc1ccc2c(Nc3ccc(NS(C)(=O)=O)cc3)c3ccccc3nc2c1`: 7.13; for `CNc1ccc2c(Nc3ccc(NS(C)(=O)=O)cc3)c3ccccc3nc2c1`: 9.3.
On to `COc1cccc2c(Nc3ccc(NS(C)(=O)=O)cc3)c3ccccc3nc12`, for which the pKa in data set [1] was found to be 7.15.
In turn, `CS(=O)(=O)Nc1ccc(Nc2c3ccccc3nc3cccc(Cl)c23)cc1` returned a pKa in data set [1] of 5.86.
As to `CS(=O)(=O)Nc1ccc(Nc2c3ccccc3nc3cnccc23)cc1`, the “Log 1/D40” value in data set [3] is given as “Not reached”.
`Cc1ccc2nc3ccccc3c(Nc3ccc(NS(C)(=O)=O)cc3)c2c1` displayed a pKa in data set [1] of 7.23. The “Log 1/D40” value in data set [3] is on record as “Not reached”.
In the case of `CS(=O)(=O)Nc1ccc(Nc2c3ccccc3nc3cc(C#N)ccc23)cc1`, the pKa in data set [1] was found to be 5.75. Further, in data set [3], the “Log 1/D40” value is listed as “Not reached”. In data set [2], the “Log M50” value was “inactive”.
Take `CS(=O)(=O)Nc1ccc(Nc2c3ccccc3nc3cc(Br)ccc23)cc1`: in data set [1], the pKa is 6.56.
Regarding `CS(=O)(=O)Nc1ccc(Nc2c3ccccc3nc3ccccc23)c(Cl)c1`, the pKa in data set [1] came out at 6.34. The “Log 1/D40” value in data set [3] is on record as “Not reached”.
As to `CS(=O)(=O)Nc1ccc(Nc2c3ccccc3nc3cc(S(C)(=O)=O)ccc23)cc1`, the pKa in data set [1] is 5.65. The “Log 1/D40” value in data set [3] was “Not reached”.
On to `CS(=O)(=O)Nc1ccc(Nc2c3ccccc3nc3c(Cl)cccc23)cc1`, for which the pKa in data set [1] was determined as 5.92. In data set [4], the “Log 1/D40” value is on record as “Not reached”.
For the compound `CS(=O)(=O)Nc1ccc(Nc2c3ccccc3nc3ccccc23)cc1[N+](=O)[O-]`, the “Log 1/D40” value in data set [3] is recorded as “Not reached”.
Take `CS(=O)(=O)Nc1ccc(Nc2c3ccccc3nc3ccc(C(N)=O)cc23)cc1`: in data set [1], the pKa was 6.34. Besides, in data set [3], the “Log 1/D40” value is reported as “Not reached”.
In data set [1], `Cc1cccc2nc3ccccc3c(Nc3ccc(NS(C)(=O)=O)cc3)c12` displayed a pKa of 6.43.

As usually defined, the pKa is the negative logarithm of the acid dissociation constant.
